From ChEMBL document CHEMBL1154486, “Synthesis and evaluation of in vitro anti-tuberculosis activity of N-substituted glycolamides” (2009)
≈ marks a conversion by molar mass, not a printed value.

The compounds below were run on Mycobacterium tuberculosis (assay: Antimycobacterial activity against Mycobacterium tuberculosis H37Rv ATCC 27294 by microplate alamar blue assay).
Type: functional
O=C(CO)N1CCCC1 showed an MIC of 25.5 µg/mL (≈ 197 µM).
For O=C(CO)N1CCN(CCO)CC1, the MIC was 14.2 µg/mL (≈ 75.7 µM).
CC[C@@H](CO)NCCN[C@@H](CC)CO [ETHAMBUTOL] gave an MIC of 5 µg/mL (≈ 24.5 µM).
Work on O=C(CO)N1CCN(C(=O)CO)CC1 yielded an MIC of 15.8 µg/mL (≈ 77.9 µM).
O=C(CO)NN1CCOCC1 gave an MIC of 57 µg/mL (≈ 356 µM).
For O=C(CO)N1CCOCC1, the MIC was 13.8 µg/mL (≈ 94.7 µM).
In the case of O=C(CO)N(CCO)CCO, the MIC is reported as 12.5 µg/mL (≈ 76.6 µM).
CCC(CO)NC(=O)CO (centres undefined) showed an MIC of 29.5 µg/mL (≈ 200 µM).
Compound O=C(CO)N1CCCC(O)C1 (centres undefined) has an MIC of 60 µg/mL (≈ 377 µM).
CC(CO)(CO)NC(=O)CO gave an MIC of 67.5 µg/mL (≈ 414 µM).
O=C(CO)N1CCC(O)CC1 showed an MIC of 33.2 µg/mL (≈ 209 µM).
With O=C(CO)N1CCCCC1 the MIC was 38.8 µg/mL (≈ 271 µM).
For O=C(CO)NCCO, the MIC was 87.5 µg/mL (≈ 735 µM).
O=C(CO)NCCc1ccccc1 showed an MIC of 74 µg/mL (≈ 413 µM).
